Values quoted from earlier work, collected in US7338780B2, “Method for producing tripeptides and/or peptides longer than tripeptides” (Ajinomoto Co., Inc., priority 2002, dated 2008).
Residues, ends and D or L forms follow the SMILES beside them.

C[C@H](N)C(=O)N[C@@H](CCC(N)=O)C(=O)O [L-alanyl-L-glutamine] (H-Ala-Gln-OH)
water-solubility compared with L-glutamine: higher
